Laboratory results reported in patent US8716326B2, “Isoindolinone derivatives, preparation method thereof and a pharmaceutical composition comprising same” (Korea Research Institute of Chemical Technology, priority 2009, dated 2014).

Test system: Runx2
Experiment: Runx2 activity, 6xOSE2-Luc luciferase reporter in transfected C2C12 cells
Assay type: cell-based, Mouse
Conditions: Mus musculus, 24 hrs, read-out: luciferase activity relative to control set as 1
Protocol: Mouse premyoblast cell (C2C12 cell) was transfected using receptor vector 6xOSE2-Luc in order to investigate the activity of the amide compound of the present invention on Runx2.
Specifically, the receptor vector 6xOSE2-Luc was prepared by inserting an artificial promoter linked by six tandem copies of the OSE2 (osteoblast specific element-2) into vector pGL3 (Promega; Madison, Wis., U.S.A.), and then, cloned into the C2C12 cell to be transfected (Kim et al., Journal of Cellular Biochemistry, 91: 1239-1247, 2004). The OSE2 is the binding site of Runx2 in the promoter of osteocalcin which is a bone marker.
C2C12 cells (5,000 cells/well) were plated onto 96-well plates using 10% FBS (fetal bovine serum; Hyclone)-containing DMEM (Dulbecco's Modified Eagle's Medium), the medium was replaced with 5% FBS-containing DMEM after 24 hrs, and treated with each of the amide compounds obtained in Examples 1 to 94 at various concentrations of 2.5 μM, 5.0 μM, 10 μM, and 20 μM. As a control, dimethyl sulfoxide (DMSO) vehicle was applied to the cell in an amount same as that of the amide compound. After 24 hrs, the luciferase activity in the cell lysate was measured by using Dual-Luciferase Reporter Assay System (Promega). The luciferase activity of the amide compound of the present invention was calculated as a value relative to that observed for the control which was set as 1.

**Q.** What does the source list for `Cc1cc(C(=O)NCCCCCC(=O)Nc2ccccc2N)ccc1-c1cncnc1` [Example 90, N-(5-(2-aminophenylcarbamoyl)pentyl)-3-methyl-4-(5-pyrimidinyl)-benzamide]?
**A.** fold induction at 2.5 µM: 1.7; fold induction at 5 µM: 3.7; fold induction at 10 µM: 9.5; fold induction at 20 µM: 22.1

**Q.** For `Nc1ccccc1NC(=O)c1ccc(CN2Cc3cc(Br)ccc3C2=O)cc1` [Example 56, N-(2-aminophenyl)-4-((5-bromo-1-oxoisoindolin-2-yl)methyl)benzamide], which fold induction at 2.5 µM is on record?
**A.** 1.1

**Q.** What about the fold induction at 5 µM of the same compound?
**A.** 1.1

**Q.** And the fold induction at 10 µM?
**A.** 1.1

**Q.** What about the fold induction at 20 µM of the same compound?
**A.** 1.1

**Q.** Which fold induction at 2.5 µM does the source give for `Cc1ccc(-c2cccc3c2CN(Cc2ccc(C(=O)Nc4ccccc4N)cc2)C3=O)cc1F` [Example 27, N-(2-aminophenyl)-4-((4-(3-fluoro-4-methylphenyl)-1-oxoisoindolin-2-yl)methyl)benzamide] here?
**A.** 9.9

**Q.** What about the fold induction at 5 µM of the same compound?
**A.** 17.5

**Q.** What about the fold induction at 10 µM of the same compound?
**A.** 22.5

**Q.** What about the fold induction at 20 µM of the same compound?
**A.** 20.3

**Q.** How did the fold induction at 2.5 µM turn out when `Cc1cc(C(=O)NCCCCCC(=O)Nc2ccccc2N)ccc1-c1ccccc1` [Example 86, N-(5-(2-aminophenylcarbamoyl)pentyl)-3-methyl-4-phenyl-benzamide] was run?
**A.** 1.2

**Q.** And the fold induction at 5 µM?
**A.** 1.9

**Q.** What about the fold induction at 10 µM of the same compound?
**A.** 3.4

**Q.** And the fold induction at 20 µM?
**A.** 3.7

**Q.** How did the fold induction at 2.5 µM turn out when `Nc1ccccc1NC(=O)c1ccc(CN2Cc3cc(-c4cncnc4)ccc3C2=O)cc1` [Example 58, N-(2-aminophenyl)-4-((1-oxo-5-(pyrimidin-5-yl)isoindolin-2-yl)methyl)benzamide] was run?
**A.** 11.7

**Q.** And the fold induction at 5 µM?
**A.** 17.1

**Q.** What about the fold induction at 10 µM of the same compound?
**A.** 21.6

**Q.** And the fold induction at 20 µM?
**A.** 21.6

**Q.** What does the source list for `COc1cc2c(c(-c3cc(C)cc(C)c3)c1OC)CN(CCCCCC(=O)Nc1ccccc1N)C2=O` [Example 32, N-(2-aminophenyl)-6-(5,6-dimethoxy-4-(3,5-dimethylphenyl)-1-oxoisoindolin-2-yl)hexanamide]?
**A.** fold induction at 2.5 µM: 4.4; fold induction at 5 µM: 9.2; fold induction at 10 µM: 18.5; fold induction at 20 µM: 23.8

**Q.** Which results are given for `Cc1cc(C(=O)NCCCCCC(=O)Nc2ccccc2N)ccc1Br` [Example 85, N-(5-(2-aminophenylcarbamoyl)pentyl)-4-bromo-3-methylbenzamide]?
**A.** fold induction at 2.5 µM: 2.15; fold induction at 5 µM: 6.7; fold induction at 10 µM: 13.9; fold induction at 20 µM: 14.3

**Q.** `Cc1c(Br)cccc1C(=O)NCc1ccc(C(=O)Nc2ccccc2N)cc1` [Example 68, N-(2-aminophenyl)-4-((3-bromo-2-methylbenzamido)methyl)benzamide] was tested. Which fold induction at 2.5 µM did it give?
**A.** 9

**Q.** What about the fold induction at 5 µM of the same compound?
**A.** 10.1

**Q.** What about the fold induction at 10 µM of the same compound?
**A.** 12.8

**Q.** And the fold induction at 20 µM?
**A.** 15.6

**Q.** With `COc1ccc(-c2ccc3c(c2)CN(Cc2ccc(C(=O)Nc4ccccc4N)cc2)C3=O)cc1OC` [Example 64, N-(2-aminophenyl)-4-((5-(3,4-dimethoxyphenyl)-1-oxoisoindolin-2-yl)methyl)benzamide] as the compound, how does the fold induction at 2.5 µM read?
**A.** 11.3

**Q.** What about the fold induction at 5 µM of the same compound?
**A.** 10.7

**Q.** And the fold induction at 10 µM?
**A.** 10.1

**Q.** And the fold induction at 20 µM?
**A.** 9.5

**Q.** For `N#Cc1ccc(-c2ccc3c(c2)CN(Cc2ccc(C(=O)Nc4ccccc4N)cc2)C3=O)cc1` [Example 65, N-(2-aminophenyl)-4-[5-(4-cyanophenyl)-1-oxo-2,3-dihydro-1H-isoindol-2-yl]methylbenzamide], which fold induction at 2.5 µM is on record?
**A.** 12.9

**Q.** And the fold induction at 5 µM?
**A.** 15.7

**Q.** And the fold induction at 10 µM?
**A.** 13.5

**Q.** What about the fold induction at 20 µM of the same compound?
**A.** 11.4

**Q.** How did the fold induction at 2.5 µM turn out when `Nc1ccccc1NC(=O)c1ccc(CN2Cc3c(cccc3-c3ccc4ccccc4c3)C2=O)cc1` [Example 21, N-(2-aminophenyl)-4-((4-(naphthalen-2-yl)-1-oxoisoindolin-2-yl)methyl)benzamide] was run?
**A.** 6.4

**Q.** And the fold induction at 5 µM?
**A.** 8.7

**Q.** What about the fold induction at 10 µM of the same compound?
**A.** 11.6

**Q.** What about the fold induction at 20 µM of the same compound?
**A.** 11.7

**Q.** Which results are given for `Nc1ccccc1NC(=O)c1ccc(CN2Cc3c(cccc3-c3ccc(Oc4ccccc4)cc3)C2=O)cc1` [Example 29, N-(2-aminophenyl)-4-((1-oxo-4-(4-phenoxyphenyl)isoindolin-2-yl)methyl)benzamide]?
**A.** fold induction at 2.5 µM: 3.4; fold induction at 5 µM: 5.6; fold induction at 10 µM: 10.5; fold induction at 20 µM: 10

**Q.** `Cc1c(C(=O)NCCCCCC(=O)Nc2ccccc2N)cccc1-c1cccnc1` [Example 83, N-(5-(2-aminophenylcarbamoyl)pentyl)-2-methyl-3-(3-pyridinyl)-benzamide] was tested. Which fold induction at 2.5 µM did it give?
**A.** 1.3

**Q.** What about the fold induction at 5 µM of the same compound?
**A.** 2.1

**Q.** What about the fold induction at 10 µM of the same compound?
**A.** 5.6

**Q.** What about the fold induction at 20 µM of the same compound?
**A.** 15.7

**Q.** For `COc1ccc(-c2cccc3c2CN(CCCCCC(=O)NO)C3=O)c(OC)c1` [Example 39, N-hydroxy-6-(4-(2,4-dimethoxyphenyl)-1-oxoisoindolin-2-yl)hexanamide], which fold induction at 2.5 µM is on record?
**A.** 1.4

**Q.** What about the fold induction at 5 µM of the same compound?
**A.** 2.1

**Q.** What about the fold induction at 10 µM of the same compound?
**A.** 5.3

**Q.** And the fold induction at 20 µM?
**A.** 25.6

**Q.** How did the fold induction at 2.5 µM turn out when `Nc1ccc(-c2cccs2)cc1NC(=O)CCCCCN1Cc2c(cccc2-c2cncnc2)C1=O` [Example 47, N-(2-amino-5-(thiophen-2-yl)phenyl)-6-(1-oxo-4-(pyrimidin-5-yl)isoindolin-2-yl)hexanamide] was run?
**A.** 1.1

**Q.** And the fold induction at 5 µM?
**A.** 1.2

**Q.** And the fold induction at 10 µM?
**A.** 1.3

**Q.** And the fold induction at 20 µM?
**A.** 1.6

**Q.** Which fold induction at 2.5 µM does the source give for `COc1cc2c(c(Br)c1OC)CN(Cc1ccc(C(=O)Nc3ccccc3N)cc1)C2=O` [Example 1, N-(2-aminophenyl)-4-((4-bromo-5,6-dimethoxy-1-oxoisoindolin-2-yl)methyl)benzamide] here?
**A.** 21.4

**Q.** What about the fold induction at 5 µM of the same compound?
**A.** 26.2

**Q.** And the fold induction at 10 µM?
**A.** 19.9

**Q.** What about the fold induction at 20 µM of the same compound?
**A.** 15.8

**Q.** Which results are given for `Nc1ccccc1NC(=O)c1ccc(CN2Cc3c(cccc3-c3ccccc3)C2=O)cc1` [Example 11, N-(2-aminophenyl)-4-((1-oxo-4-phenylisoindolin-2-yl)methyl)benzamide]?
**A.** fold induction at 2.5 µM: 8.3; fold induction at 5 µM: 12.3; fold induction at 10 µM: 15.6; fold induction at 20 µM: 16.8

**Q.** `COc1cc(C(=O)NCc2ccc(C(=O)Nc3ccccc3N)cc2)c(C)c(-c2ccccc2)c1OC` [Example 74, N-(2-aminophenyl)-4-((2-methyl-3-phenyl-4,5-dimethoxy-benzamido)methyl)benzamide] was tested. Which fold induction at 2.5 µM did it give?
**A.** 25.1

**Q.** And the fold induction at 5 µM?
**A.** 31.1

**Q.** What about the fold induction at 10 µM of the same compound?
**A.** 38.5

**Q.** What about the fold induction at 20 µM of the same compound?
**A.** 38.9

**Q.** Which results are given for `COc1cc(C(=O)NCc2ccc(C(=O)Nc3ccccc3N)cc2)c(C)c(-c2cccc(N)c2)c1OC` [Example 77, N-(2-aminophenyl)-4-((3-(3-aminophenyl)-4,5-dimethoxy-2-methyl-benzamido)methyl)benzamide]?
**A.** fold induction at 2.5 µM: 4.9; fold induction at 5 µM: 11; fold induction at 10 µM: 24.5; fold induction at 20 µM: 33.5

**Q.** Which results are given for `COc1ccc(-c2ccc3c(c2)CN(CCCCCC(=O)NO)C3=O)cc1OC` [Example 51, N-hydroxy-6-(5-(3,4-dimethoxyphenyl)-1-oxoisoindolin-2-yl)hexanamide]?
**A.** fold induction at 2.5 µM: 1.2; fold induction at 5 µM: 2.1; fold induction at 10 µM: 10.4; fold induction at 20 µM: 26.4

**Q.** How did the fold induction at 2.5 µM turn out when `N#Cc1ccc(-c2cccc3c2CN(Cc2ccc(C(=O)Nc4ccccc4N)cc2)C3=O)cc1` [Example 20, N-(2-aminophenyl)-4-[4-(4-cyanophenyl)-1-oxo-2,3-dihydro-1H-isoindol-2-yl]methylbenzamide] was run?
**A.** 16.2

**Q.** And the fold induction at 5 µM?
**A.** 19.4

**Q.** And the fold induction at 10 µM?
**A.** 19.3

**Q.** And the fold induction at 20 µM?
**A.** 16.8

**Q.** Which results are given for `O=C(CCCCCN1Cc2cc(-c3ccccc3)ccc2C1=O)NO` [Example 49, N-hydroxy-6-(1-oxo-5-phenylisoindolin-2-yl)hexanamide]?
**A.** fold induction at 2.5 µM: 4.8; fold induction at 5 µM: 10.6; fold induction at 10 µM: 28.1; fold induction at 20 µM: 26.5

**Q.** `COc1ccc(-c2cccc(C(=O)NCCCCCC(=O)NO)c2C)c(OC)c1` [Example 93, N-(5-(hydroxycarbamoyl)pentyl)-2-methyl-3-(2,4-dimethoxyphenyl)-benzamide] was tested. Which fold induction at 2.5 µM did it give?
**A.** 1.3

**Q.** And the fold induction at 5 µM?
**A.** 1.9

**Q.** What about the fold induction at 10 µM of the same compound?
**A.** 4.8

**Q.** And the fold induction at 20 µM?
**A.** 11.2

**Q.** `COc1cc2c(c(-c3cccnc3)c1OC)CN(CCCCCC(=O)Nc1ccccc1N)C2=O` [Example 33, N-(2-aminophenyl)-6-(5,6-dimethoxy-1-oxo-4-(pyridin-3-yl)isoindolin-2-yl)hexanamide] was tested. Which fold induction at 2.5 µM did it give?
**A.** 1.8

**Q.** And the fold induction at 5 µM?
**A.** 3.4

**Q.** And the fold induction at 10 µM?
**A.** 10

**Q.** What about the fold induction at 20 µM of the same compound?
**A.** 29

**Q.** Which results are given for `Cc1cc(C)cc(-c2ccc(C(=O)NCCCCCC(=O)Nc3ccccc3N)cc2C)c1` [Example 91, N-(5-(2-aminophenylcarbamoyl)pentyl)-3-methyl-4-(3,5-dimethylphenyl)-benzamide]?
**A.** fold induction at 2.5 µM: 1.1; fold induction at 5 µM: 1.5; fold induction at 10 µM: 2.9; fold induction at 20 µM: 3.9

**Q.** `Cc1c(C(=O)NCc2ccc(C(=O)Nc3ccccc3N)cc2)cccc1-c1cncnc1` [Example 70, N-(2-aminophenyl)-4-((2-methyl-3-(5-pyrimidinyl)benzamido)methyl)benzamide] was tested. Which fold induction at 2.5 µM did it give?
**A.** 8.9

**Q.** And the fold induction at 5 µM?
**A.** 20.6

**Q.** What about the fold induction at 10 µM of the same compound?
**A.** 30.1

**Q.** And the fold induction at 20 µM?
**A.** 40.2
